Measured values: PubChem BioAssay (NCI)
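A five-concentration, 48-hour dose response in 96-well plates underlies each endpoint, interpolated linearly between surrounding concentrations. The concentration for full growth arrest is given as TGI.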

Assays:
Assay in all cases: NCI-60 cell line screen, 48 h
[1] = test system: COLO 205 colon
[2] = test system: HCC-2998 colon
[3] = test system: HT29 colon
[4] = test system: KM12 colon
[5] = test system: LOX IMVI melanoma
[6] = test system: MOLT-4 leukemia
[7] = test system: NCI-H23 lung
[8] = test system: NCI-H522 lung
[9] = test system: OVCAR-3 ovarian
[10] = test system: OVCAR-4 ovarian
[11] = test system: OVCAR-5 ovarian
[12] = test system: SF-539 CNS
[13] = test system: SNB-75 CNS
[14] = test system: SR leukemia
[15] = test system: T-47D breast
[16] = test system: U251 CNS

SMILES	TGI [1] [µM]	TGI [2] [µM]	TGI [3] [µM]	TGI [4] [µM]	TGI [5] [µM]	TGI [6] [µM]	TGI [7] [µM]	TGI [8] [µM]	TGI [9] [µM]	TGI [10] [µM]	TGI [11] [µM]	TGI [12] [µM]	TGI [13] [µM]	TGI [14] [µM]	TGI [15] [µM]	TGI [16] [µM]
C/C(=N/NC(=S)Nc1ccccc1Cl)c1ccccn1	2.54	18.1	24.7	18.7	16	3.62	32.8	8.19	10.9	14.5	5.26	7.56	30.5	3.22	6.82	15.3
COC(=O)c1ccccc1C1CN=NC12Cc1ccc3ccccc3c1C2=O (stereo not drawn)	> 100	> 100		> 100	> 100	> 100		> 100	> 100	> 100	> 100	> 100	> 100	> 100	96.9	> 100
CCOC(=O)CN1CCNCCN(CC(=O)OCC)CCNCC1	> 100	> 100	> 100	> 100	> 100	> 100		> 100	> 100	> 100	> 100	> 100	> 100	> 100	> 100	> 100
O=C(NN=C1CCN(Cc2ccccc2)CC1)C(O)(c1ccccc1)c1ccccc1	> 100	> 100	> 100	> 100	> 100	> 100	> 100			> 100	> 100	> 100	> 100	> 100	> 100	> 100
Brc1cccc(/C=C/CN2CCN(CCOC(c3ccccc3)c3ccccc3)CC2)c1	36.2	21.3	24.2	31.3	27.6	31.1	36.9	29.3	30.2	25.2	34.7	32.4	20.2	28.3	18.6	27.5
COc1ccc2[nH]c(CCNC(=O)c3cc([N+](=O)[O-])cc([N+](=O)[O-])c3)cc2c1	> 100		> 100	> 100	> 100	> 100	> 100		> 100	> 100		> 100	46.2	> 100	90.6	78.1
O=C(c1ccccc1)c1ccc(C(c2c(O)c3ccccc3oc2=O)c2c(O)c3ccccc3oc2=O)cc1	> 73	50.4	> 63.5	37.1	> 100	53.9	49	43	> 56.6	82.9	51.4	> 100	62.4	59.3	> 100	> 78.4
CC1C(c2ccc(F)cc2)c2cc3c(cc2OC1N1CCCC1)OCO3 (stereo not drawn)	> 100	> 100	> 100	> 100	> 100		> 100	> 100	> 100		> 100	> 100	> 100	> 100	> 100	
CCOC(=O)c1nc2cc(N3CCOCC3)c(F)cc2[nH]c1=O	> 100	> 100	> 100	> 100		> 100	> 100	> 100	> 100	> 100	> 100	> 100	> 100	> 100	> 100	> 100
Cc1ccc(/C=C2\CN(C)CC3=C2OC(N)=C(C#N)C3c2ccc(C)cc2)cc1 (stereo not drawn)	> 69.3	37.2	34.2	39.3	27.2	> 51	62.6	> 49.9	29.8	34	55.7	> 100		> 100	71.2	> 61.1
COC(CN(C)C(=O)C(C)NC(=O)c1ccccc1)OC (stereo not drawn)	> 100		> 100	> 100		> 100	> 100	> 100		> 100	> 100	> 100	> 100	> 100	> 100	> 100
Cc1[nH]c2ncn3nc(C(Cl)(Cl)Cl)nc3c2c1Cc1ccccc1	> 100	> 100	> 100	> 100		> 100	> 100	> 100	> 100	> 100	> 100	> 100	> 100		> 100	> 100
Cn1cc(C(=O)c2nccc3c2cnc2ccccc23)ccc1=O	> 100	> 100	> 100	> 100	> 100	> 100	> 100		> 100	> 100	> 100	> 100	> 100	49.7	> 100	> 100
Cc1ccc(Nc2nc(=S)[nH]c3[nH]ncc23)cc1	> 100	> 100	> 100	> 100	> 100	> 100	> 100	> 100	> 100	> 100	> 100	> 100	> 100	> 100	> 100	> 100
c1ccc(N=C2c3ccccc3CN2c2ccccc2)cc1	> 100	> 100	> 100	> 100	> 100	> 100	> 100	> 100	> 100	> 100		> 100	> 100	> 100	> 100	> 100
CC(=O)N=C(N=Nc1c(O)[nH]c2ccc(C)cc12)NC(C)=O	> 100	> 100	> 100	> 100	> 100	> 100	> 100	> 100		> 100	> 100		> 100	> 100	> 100	> 100

SMILES	TGI [1] [µM]	TGI [2] [µM]	TGI [3] [µM]	TGI [4] [µM]	TGI [5] [µM]	TGI [6] [µM]	TGI [7] [µM]	TGI [8] [µM]	TGI [9] [µM]	TGI [10] [µM]	TGI [11] [µM]	TGI [12] [µM]	TGI [13] [µM]	TGI [14] [µM]	TGI [15] [µM]	TGI [16] [µM]
CC(=O)OCC1OC(On2ccccc2=S)C(OC(C)=O)C(OC(C)=O)C1OC(C)=O (stereo not drawn)	> 100	> 100	> 100	> 100	> 100	> 100	> 100	> 100	> 100	> 100	> 100	> 100	> 100		> 100	> 100
CCOP(=O)(OCC)C(NC(=O)OCC(Cl)(Cl)Cl)n1nnc(C(=O)OC)c1C(=O)OC (stereo not drawn)	> 100	> 100	> 100	> 100	> 100	> 100	> 100	> 100	> 100	> 100		> 100	> 100	> 100	> 100	> 100
CSc1ccc2c(cc1=O)[C@@H](NC(C)=O)CCc1cc(O)c(O)c(O)c1-2	> 100	50.5	29.2	41.4	> 100	> 100	44.9	39.3	34.2	35.5	35.9		53	> 100	> 100	45.3
COc1c(CC=C(C)C)c(O)c(C(CC(C)C)c2c(O)c(C(C)=O)c(O)c3c2OC(C(C)(C)O)C3)c(O)c1C(C)=O (stereo not drawn)	> 12.5	> 12.5	> 12.5		> 12.5	> 12.5	> 12.5	> 12.5	> 12.5	> 12.5	> 12.5	> 12.5		10.4	8.36	
CN(C)CCCNc1c(O)c2c(c(O)c1Cl)C(=O)C=CC2=O	3.07	3.22	4.27	> 10	3.13	5.04	3.22		6.6	2.82	3	3.22	> 10		4.28	3.46
c1ccc(COc2ccc(CC3SCCCS3)cc2)cc1	> 100	> 100	> 100		> 100	> 100		> 100	> 100	> 100				> 100	> 100	
CCC1(C)C=Cc2c(cc(OC)c3c(=O)c4ccccc4n(C)c23)O1 (stereo not drawn)	> 10	> 10	> 10	> 10	> 10	> 10	> 10	> 10	> 10	> 10	> 10	> 10	> 10		> 10	> 10
O=c1c(O)c(-c2ccc(O)cc2O)oc2cc(O)cc(O)c12	> 100	> 100	> 100	> 100	> 100		> 100		> 100	> 100	> 100	> 100	> 100		> 100	> 100
COc1ccc2c(c1)C(N)CC2=O (stereo not drawn)	> 100	> 100	> 100	> 100		> 100	> 100	> 100	> 100	> 100	> 100	> 100	> 100		> 100	> 100
CSC(SC)=C1CC(=O)Nc2ccccc2C1=O	> 100	> 100	> 100	> 100	32.5	96	> 100	> 100	> 100	> 100	> 100	> 100		> 100	56.5	> 100
CNC(=S)/C(=N\Nc1nc[nH]c1C(N)=O)C(N)=S	41.1	22.8	> 100	24.4	> 37.9		> 94.7	> 91.7	> 50.2	> 100	> 100	> 81.3	71.9	0.468	> 89.3	> 82.8
COc1cc(NS(C)(=O)=O)ccc1NCc1cnc2ccc3[nH]c(C)ccc3c12	> 100		> 100	> 100	> 100	44.7	> 100	> 100	91.9	> 100	> 100	> 100	78.4	33.5	75	> 100
CCOC(=O)c1cc2cc(N(C(C)=O)C(C)=O)ccc2s1	> 100	> 100	67.9	> 100	> 100	51	> 100	55.3	> 100	> 100	73.8	92.3	39.9		81.3	59.6
CC(C)(C)OC(=O)[N+](=N)C(=O)C1CCC(=O)N1C(=O)OCc1ccccc1 (stereo not drawn)	> 100	> 100	> 100	> 100	> 100	> 100	> 100	> 100	> 100	> 100	> 100		> 100	> 100	> 100	> 100
Cc1ccc2c(c1)SSSSS2	97.9	31.6	70.6	34	34.4	> 100	43	40.6	40.5	37.2	46.9		49.2	> 100	29	> 100
CC(C(=O)N1C(=O)N(C(=O)C(C)C(O)c2ccccc2)C(c2ccccc2)C1c1ccccc1)C(O)c1ccccc1 (stereo not drawn)	28.1	> 100	18.8	5.69	24.2	11.9	> 100	48.4	31.5	> 100		22.6	54.8	14.5	> 100	27.8
